Common to all, as to assay type: cell-based, human
In experiment [1] the test system is fibroblast cells within CDM. Kind of experiment: Trans-differentiation of cells within CDM by cytochalasin B, VPA, 5-Azacytidine, immunohistochemistry. The note with it: Day 14 CDM; cytochalasin B and NbActive medium only. On the procedure:
Fibroblast cells were cultured in DMEM medium in the presence of 10% FCS as described in Example I, followed by seeding onto 12-well plates pre-coated with laminin ([…]) at a concentration of 2×10^6 cells/ml in defined CDM Medium consisting of a 3:1 ratio of Dulbecco's modified Eagle medium (DMEM, high glucose (4.5 g/L) with L-glutamine and sodium pyruvate) and Ham's F-12 medium supplemented with the following components: EGF (4.2×10^−10M), bFGF (2.8×10^−10M), ITS (8.6×10^−5M), dexamethasone (1.0×10^−7M), L-ascorbic acid phosphate magnesium salt n-hydrate (3.2×10^−4M), L-3,3′,5-triiodothyronine (2.0×10^−10M), ethanolamine (10^−4M), GlutaMAX™ (4×10^−3M), glutathione (3.3×10^−6M), and 1% penicillin/streptomycin/amphotericin B. By culturing the fibroblast cells at hyperconfluent density in this completely chemically defined medium causes them to enter a high synthetic phase with a slow-down in proliferation, leading to the production of a living tissue equivalent (LTE) consisting of multiple layers of fibroblasts within de novo 3D extracellular matrix (CDM) that is completely synthesized by the fibroblasts themselves.
Day 14 CDM samples were treated with cytochalsin B (10 μg/ml, Calbiochem), with the concentration of cytochalsin B reduced from 10 μg/ml to 0 μg/ml (none) over 5 days while at the same time switching the medium from CDM Medium to NbActive medium. […]

A further experiment has as its system fibroblast cells. Kind of experiment: Immunohistochemistry (Cellomics) % Sox2 and nestin positive cells with or without cytochalasin B (Table 4). The note with it: disrupting the cell cytoskeleton. The method, then: Cells were fixed with a 4% formaldehyde/PBS solution for 10 min at room temperature and subsequently permeabilized for 5 min with 0.1% Triton X-100™ in 4% formaldehyde/PBS. After two brief washes with PBS, unspecific antibody binding was blocked by a 30 min incubation with 5% normal goat serum in PBS. Then primary antibodies were added in 5% normal goat serum/PBS as follows: Mouse anti-Nestin (1:100, BD) as an […] present in neural stem cells and mouse anti-NCAM (1:100, Neuromics) as neuronal adhesion molecule. After a 2 h incubation the cells were washed 4 times for 5 min each with 0.1% Tween™/PBS. Appropriate fluorescence-tagged secondary antibody was used for visualization; Goat anti-mouse 546 (1:200, invitrogen) prepared in 5% normal goat serum/PBS was used. […] Fluorescence images were taken with a Cellomics™ ArrayScan HCS Reader microscopy system. To determine an estimate of the percentage of cells adopting neuronal or glial phenotypes, random fields were selected and for each field the total number of cells (as determined by counting Hoechst stained nuclei) and the total number of cells positive for neuronal or glial markers were determined.
Various combinations of neurogenic regulators and cytokines for epigenetic modifications were tested to ascertain their effect on reprogramming efficiency. […] Cells were then analyzed for neural stem cell markers. […]

Another experiment relates to HFFs. In words: Sox2 immunohistochemistry with or without Noggin. To be noted: inhibiting the BMP signaling pathway. The method, then:
This study was designed to evaluate the role of Noggin in the process of de-differentiation of HFFs towards NSLCs. HFFs were cultured and treated with cytochalasin B as described in Example III. After two days of treatment, cells were transfected by Nucleofection as described in Example II with the constructed vector Msi1/Ngn2. Briefly, after preparing the cells, they were mixed with 2 μg of total DNA (Msi1/Ngn2) and were co-transfect with MBD2 ([…]), by the Amaxa's Nucleofector™ according to the manufacturer's protocol. The samples were then transferred into a Laminin (10 μg/ml, Sigma) coated culture plate and cultured in the presence of Neural Proliferation Medium (NeuroCult™ proliferation Kit, StemCell Technologies) with recombinant hFGF (20 ng/ml, Peprotech), recombinant hEGF (20 ng/ml, Peprotech), and with or without the presence of Noggin (20 ng/ml, Peprotech). Samples were collected at different time points (1, 3, 4, 6, and 8 days) to analyze neuronal gene expression by RT-PCR and protein expression levels by immunohistochemistry.
Fluorescent imunohistochemical staining was performed on samples after 4 days of transfection as previously described in Example I. Transfected cells were stained and analyzed for expression of Sox2, the percentage of Sox2 was 33.3±1.00% in the presence of Noggin compared to 27.5±0.50% without the presence of noggin at day 4. […]

For the molecule `C=C1[C@@H](C)[C@H]2[C@H](Cc3ccccc3)NC(=O)[C@]23OC(=O)/C=C/[C@H](O)CCC[C@@H](C)C/C=C/[C@H]3[C@@H]1O` [Cytochalasin B], the βIII-tubulin positive cells result in experiment [1] is listed as “failed to detect”. Also, the effect on reprogramming entry in the experiment on fibroblast cells was “significantly enhanced reprogramming, but had no reprogramming effect on its own”.

B1: Noggin: Noggin (20 ng/ml, Peprotech), inhibits the BMP signaling pathway (protein, UniProt Q13253 28-232, looked up)
Noggin: QHYLHIRPAPSDNLPLVDLIEHPDPIFDPKEKDLNETLLRSLLGGHYDPGFMATSPPEDRPGGGGGAAGGAEDLAELDQLLRQRPSGAMPSEIKGLEFSEGLAQGKKQRLSKKLRRKLQMWLWSQTFCPVLYAWNDLGSRFWPRYVKVGSCFSKRSCSVPEGMVCKPSKSVHLTVLRWRCQRRGGQRCGWIPIQYPIISECKCSC
Turning to B1, the effect on reprogramming entry in the experiment on HFFs is listed as “enhanced reprogramming, but had no reprogramming effect on its own”.

For the origin of these results see patent publication US11795439B2, “Methods for reprogramming cells and uses thereof” (GENESIS TECHNOLOGIES LIMITED, priority 2009, dated 2023).
